Data as given in ChEMBL document CHEMBL2331203, “Optimization of inhibitors of the tyrosine kinase EphB4. 2. Cellular potency improvement and binding mode validation by X-ray crystallography” (J Med Chem, 2013).

Tests used:
[1] = target: T1, Ephrin type-B receptor 4 (Homo sapiens) (UniProt P54760); test: Inhibition of EphB4 (unknown origin) transfected in CHO cells using Z'-LYTE TYR-1 peptide as substrate at 10 uM after 2 hrs by FRET assay; type: cell-based
T1 sequence (whole entry): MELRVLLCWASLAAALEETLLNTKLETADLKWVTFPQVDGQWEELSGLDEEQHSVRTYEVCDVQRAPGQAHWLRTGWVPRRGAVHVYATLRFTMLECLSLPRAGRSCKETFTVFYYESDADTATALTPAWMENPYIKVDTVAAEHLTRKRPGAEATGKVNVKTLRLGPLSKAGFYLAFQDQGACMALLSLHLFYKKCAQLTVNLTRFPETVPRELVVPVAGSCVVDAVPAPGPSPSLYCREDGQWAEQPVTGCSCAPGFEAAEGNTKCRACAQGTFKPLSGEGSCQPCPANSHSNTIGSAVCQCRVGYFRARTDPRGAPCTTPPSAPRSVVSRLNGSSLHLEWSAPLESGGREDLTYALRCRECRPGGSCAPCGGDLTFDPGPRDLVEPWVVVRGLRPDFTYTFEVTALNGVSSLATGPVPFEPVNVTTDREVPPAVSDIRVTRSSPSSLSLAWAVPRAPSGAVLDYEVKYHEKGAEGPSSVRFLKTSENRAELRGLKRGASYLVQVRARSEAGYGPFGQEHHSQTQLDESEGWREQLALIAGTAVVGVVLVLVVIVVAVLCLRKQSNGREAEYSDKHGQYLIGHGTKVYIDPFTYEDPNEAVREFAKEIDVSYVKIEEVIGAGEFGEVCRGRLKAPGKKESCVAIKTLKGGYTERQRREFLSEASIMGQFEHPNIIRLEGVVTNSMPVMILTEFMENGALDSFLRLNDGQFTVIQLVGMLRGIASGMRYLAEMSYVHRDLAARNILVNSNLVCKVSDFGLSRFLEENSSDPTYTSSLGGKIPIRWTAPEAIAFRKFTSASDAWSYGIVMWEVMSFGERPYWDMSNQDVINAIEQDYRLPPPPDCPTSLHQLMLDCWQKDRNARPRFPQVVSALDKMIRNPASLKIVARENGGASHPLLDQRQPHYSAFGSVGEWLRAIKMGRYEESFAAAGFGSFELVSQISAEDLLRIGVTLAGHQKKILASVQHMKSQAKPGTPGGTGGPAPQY

[2] = Cytotoxicity against human RXF 393NL cells after 4 days by propidium iodide staining; details: 96 h
[3] = tested on: DU-145; test: Cytotoxicity against human PRXF DU145 cells after 4 days by propidium iodide staining; details: DU-145, 96 h
[4] = Cytotoxicity against human PAXF 1657L cells after 4 days by propidium iodide staining; details: 96 h
[5] = Cytotoxicity against human LXFA 983L cells after 4 days by propidium iodide staining; details: 96 h
[6] = Cytotoxicity against human GXF251L cells after 4 days by propidium iodide staining; details: GXF 251L, 96 h
[7] = Cytotoxicity against human CXF 1103L cells after 4 days by propidium iodide staining; details: 96 h
[8] = target: Tyrosine-protein kinase Lck (Homo sapiens, UniProt P06239); test: Inhibition of Lck (unknown origin) using [gamma-33P]ATP after 30 mins by radiometric assay
[9] = Apparent permeability from basolateral to apical side in human Caco2 cells after 2 hrs by LC-MS/MS analysis; type: ADME, cell-based; details: Caco-2
[10] = Apparent permeability from apical to basolateral side in human Caco2 cells after 2 hrs by LC-MS/MS analysis; type: ADME, cell-based; details: Caco-2
[11] = Permeability from basolateral to apical side in human Caco2 cells assessed as compound recovery after 2 hrs by LC-MS/MS analysis; type: ADME, cell-based; details: Caco-2, read-out: permeability
[12] = Permeability from apical to basolateral side in human Caco2 cells assessed as compound recovery after 2 hrs by LC-MS/MS analysis; type: ADME, cell-based; details: Caco-2, read-out: permeability
[13] = tested on: SNB-75; test: Cytotoxicity against human SNB75 cells by SRB assay; type: functional
[14] = tested on: K562; test: Cytotoxicity against human K562 cells by SRB assay; type: functional
[15] = tested on: Hs-578T; test: Cytotoxicity against human Hs578T cells by SRB assay; type: functional
[16] = target: Tyrosine-protein kinase ABL1 (Homo sapiens, UniProt P00519)
Description: Inhibition of Abl (unknown origin) using [gamma-33P]ATP after 30 mins by radiometric assay

[17] = target: Proto-oncogene tyrosine-protein kinase Src (Homo sapiens, UniProt P12931)
Description: Inhibition of Src (unknown origin) using [gamma-33P]ATP after 30 mins by radiometric assay

[18] = target: T2, Ephrin type-B receptor 4 (Homo sapiens, UniProt P54760)
T2 sequence (P54760 whole entry): T1 sequence (whole entry)
Description: Inhibition of human myc-tagged full length EphB4 expressed in MEF cells assessed as inhibition of ephrinB2-Fc-induced autophosphorylation incubated for 90 mins prior to ephrinB2-Fc-induction measured after 2 hrs by sandwich ELISA

[19] = in vitro; details: human, Caco-2
Description: Efflux ratio of apparent permeability from basolateral to apical side to apical to basolateral side in human Caco2 cells

Sequence of Tyrosine-protein kinase Lck (P06239 whole entry): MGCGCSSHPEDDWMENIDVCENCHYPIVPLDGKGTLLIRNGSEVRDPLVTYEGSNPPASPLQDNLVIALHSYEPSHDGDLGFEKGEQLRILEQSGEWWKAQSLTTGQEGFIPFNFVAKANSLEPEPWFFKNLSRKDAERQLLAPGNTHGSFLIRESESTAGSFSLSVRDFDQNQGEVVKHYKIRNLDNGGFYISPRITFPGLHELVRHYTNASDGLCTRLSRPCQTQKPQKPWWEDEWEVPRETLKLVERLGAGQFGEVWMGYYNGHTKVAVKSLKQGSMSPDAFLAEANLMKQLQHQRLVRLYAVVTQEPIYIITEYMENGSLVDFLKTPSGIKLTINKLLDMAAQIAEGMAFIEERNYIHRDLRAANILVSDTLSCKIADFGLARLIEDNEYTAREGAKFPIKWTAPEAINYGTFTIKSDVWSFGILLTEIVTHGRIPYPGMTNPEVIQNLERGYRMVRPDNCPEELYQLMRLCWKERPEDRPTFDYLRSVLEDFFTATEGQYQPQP
Sequence of Tyrosine-protein kinase ABL1 (P00519 whole entry): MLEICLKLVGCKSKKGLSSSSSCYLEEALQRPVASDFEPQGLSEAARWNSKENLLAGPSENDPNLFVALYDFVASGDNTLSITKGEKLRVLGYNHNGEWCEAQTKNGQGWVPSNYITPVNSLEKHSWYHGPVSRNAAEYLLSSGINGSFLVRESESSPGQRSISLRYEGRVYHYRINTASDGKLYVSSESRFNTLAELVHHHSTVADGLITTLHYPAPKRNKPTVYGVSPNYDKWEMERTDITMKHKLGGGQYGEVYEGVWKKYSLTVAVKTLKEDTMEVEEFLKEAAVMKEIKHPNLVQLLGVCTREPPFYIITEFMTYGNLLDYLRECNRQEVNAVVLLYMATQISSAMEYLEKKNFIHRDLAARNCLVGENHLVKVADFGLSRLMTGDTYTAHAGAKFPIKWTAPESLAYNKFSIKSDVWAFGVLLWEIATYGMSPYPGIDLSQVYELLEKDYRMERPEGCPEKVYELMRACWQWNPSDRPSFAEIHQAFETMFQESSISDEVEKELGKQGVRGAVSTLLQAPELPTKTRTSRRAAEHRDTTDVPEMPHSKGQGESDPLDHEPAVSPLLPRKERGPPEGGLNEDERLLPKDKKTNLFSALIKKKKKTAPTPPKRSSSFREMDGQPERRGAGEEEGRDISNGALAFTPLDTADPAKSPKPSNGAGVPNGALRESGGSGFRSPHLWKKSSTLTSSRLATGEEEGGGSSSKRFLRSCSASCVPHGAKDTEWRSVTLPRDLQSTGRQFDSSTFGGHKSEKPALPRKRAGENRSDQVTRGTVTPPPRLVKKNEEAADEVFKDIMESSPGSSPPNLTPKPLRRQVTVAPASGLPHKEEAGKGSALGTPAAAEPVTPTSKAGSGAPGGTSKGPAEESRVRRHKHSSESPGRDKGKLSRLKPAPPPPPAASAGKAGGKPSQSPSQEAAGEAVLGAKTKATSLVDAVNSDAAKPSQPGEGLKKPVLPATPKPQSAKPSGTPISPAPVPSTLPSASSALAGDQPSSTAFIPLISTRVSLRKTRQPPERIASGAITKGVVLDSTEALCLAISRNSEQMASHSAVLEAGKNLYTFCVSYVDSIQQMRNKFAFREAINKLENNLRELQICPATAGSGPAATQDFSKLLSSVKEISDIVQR
Sequence of Proto-oncogene tyrosine-protein kinase Src (P12931 2-536 limits assumed): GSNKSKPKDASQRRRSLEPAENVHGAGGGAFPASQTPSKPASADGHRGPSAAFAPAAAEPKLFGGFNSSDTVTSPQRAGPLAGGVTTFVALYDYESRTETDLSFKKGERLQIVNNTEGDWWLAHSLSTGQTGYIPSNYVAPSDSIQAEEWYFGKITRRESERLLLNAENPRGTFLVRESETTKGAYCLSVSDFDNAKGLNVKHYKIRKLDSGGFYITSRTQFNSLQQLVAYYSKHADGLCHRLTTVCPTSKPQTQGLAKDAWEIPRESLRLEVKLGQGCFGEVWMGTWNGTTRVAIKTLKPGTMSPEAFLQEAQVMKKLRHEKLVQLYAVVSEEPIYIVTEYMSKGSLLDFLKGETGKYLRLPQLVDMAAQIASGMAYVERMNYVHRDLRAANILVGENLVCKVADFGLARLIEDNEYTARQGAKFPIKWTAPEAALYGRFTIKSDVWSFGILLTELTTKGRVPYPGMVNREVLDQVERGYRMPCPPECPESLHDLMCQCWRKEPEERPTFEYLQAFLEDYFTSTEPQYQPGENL

Row | inhibition [1] | SMILES | IC50 [2] | IC50 [3] | IC50 [4] | IC50 [5] | IC50 [6] | IC50 [7] | further results
1 | 49% | CCCCn1c(-c2c(C)cccc2C)cn2c3c(=O)[nH]c(=O)n(C)c3nc12 | – | – | – | – | – | – | –
2 | – | Cc1nc(Nc2ncc(C(=O)Nc3c(C)cccc3Cl)s2)cc(N2CCN(CCO)CC2)n1 [DASATINIB] | 21.7 nM | 62.3 nM | 121 nM | 56.5 nM | 2250 nM | 4360 nM | –
3 | – | CCCCn1c(-c2ccc(F)cc2C)cn2c3c(=O)[nH]c(=O)n(C)c3nc12 | 8690 nM | 9590 nM | 9460 nM | 6020 nM | 14900 nM | 4040 nM | IC50 [8]: 617 nM
4 | – | CCCCn1c(-c2ccccc2)cn2c3c(=O)[nH]c(=O)n(C)c3nc12 | – | – | – | – | – | – | Papp B→A at 2 h [9]: 42.5 ×10⁻⁶ cm/s; Papp A→B at 2 h [10]: 42.5 ×10⁻⁶ cm/s; recovery at 2 h [11]: 78%; recovery at 2 h [12]: 69%
5 | 15% | CCCCn1c(-c2ccccc2C(F)(F)F)cn2c3c(=O)[nH]c(=O)n(C)c3nc12 | – | – | – | – | – | – | –
6 | 22% | CCCCn1c(-c2cccc(Cl)c2)cn2c3c(=O)[nH]c(=O)n(C)c3nc12 | – | – | – | – | – | – | –
7 | – | CCCCn1c(-c2ccccc2Cl)cn2c3c(=O)[nH]c(=O)n(C)c3nc12 | 2930 nM | 3180 nM | 4940 nM | 1620 nM | 18200 nM | 1140 nM | –
8 | – | COc1ccccc1-n1c(-c2cc(O)ccc2C)cn2c3c(=O)[nH]c(=O)n(C)c3nc12 | 1760 nM | 2700 nM | 2010 nM | 9160 nM | 20200 nM | 32600 nM | IC50 [8]: 1.3 nM; Papp B→A at 2 h [9]: 23 ×10⁻⁶ cm/s; Papp A→B at 2 h [10]: 3.13 ×10⁻⁶ cm/s; recovery at 2 h [11]: 74%; recovery at 2 h [12]: 51%; GI50 [13]: 128 nM; GI50 [14]: 309 nM; GI50 [15]: 562 nM; IC50 [16]: 0.92 nM; IC50 [17]: 1.14 nM; IC50 [18]: 130 nM; efflux ratio [19]: 7.3
9 | – | COc1ccccc1-n1c(-c2ccccc2)cn2c3c(=O)[nH]c(=O)n(C)c3nc12 | – | – | – | – | – | – | Papp B→A at 2 h [9]: 35.8 ×10⁻⁶ cm/s; Papp A→B at 2 h [10]: 32.3 ×10⁻⁶ cm/s; recovery at 2 h [11]: 76%; recovery at 2 h [12]: 71%
10 | – | CCCCCn1c(-c2ccccc2C)cn2c3c(=O)[nH]c(=O)n(C)c3nc12 | 5580 nM | 6970 nM | 5880 nM | 2720 nM | 4980 nM | 2570 nM | –
11 | 12% | COc1ccccc1-n1c(-c2cccc(Cl)c2)cn2c3c(=O)[nH]c(=O)n(C)c3nc12 | – | – | – | – | – | – | –
